Data from US10232002B1, “Oncolytic HSV1 vectors and methods of using the same” (priority 2012, dated 2019).

Tested on: U87ΔEGFR glioma cells

`Cn1nnc2c(C(N)=O)ncn2c1=O` [TMZ, temozolomide] gave an EC30 dose of 66 µM.
